A word on the inhibition: it is the relative decrease from the control value, in per cent.

The text below walks through data of patent publication EP2093222A1, “Polyisoprenoid epoxides useful for decreasing cholesterol and/or increasing coenzyme Q biosynthesis” (NEWBIOTECHNIC, S.A., priority 2008, dated 2009).

The subject of test [1] is HepG2 cells. Nature of the test: Biosynthesis of cholesterol and CoQ by HepG2 cells: incorporation of [3H]mevalonate, lipid extraction, HPLC with on-line detection of radioactivity. The settings on record: for Coenzyme Q10: labeling of CoQ. The class given is cell-based, human. How it is done: (§1) Human hepatoblastoma (HepG2) cells (cell line derived from a human liver cancer that contains primarily CoQ with a decaprenyl side-chain available in ATCC (Cat. No. HB-8065), obtained from LGC Prochem, UK) were cultured in 10 ml DMEM medium (Invitrogen) containing 1 g glucose per 100 ml, 10% fetal bovine serum, penicillin (100 units per ml) and streptomycin ([…]). When 70% confluency was reached, the medium was changed and the compounds to be investigated added in 50-100 µl dimethylsulfoxide to give a final concentration of 2 µM or in the case of tocotrienols 5 µM. Twenty-four hours later, 0.5 mCi [^3H]mevalonate (3.25 Ci/mmol) was added and incubation continued for an additional 8 hours. When the substrate was [^3H]lanosterol (0.28 Ci/mmol) the amount added was 5 µCi. Finally, the cells were harvested by trypsinisation and stored at -20° C for later analysis.
(§2) Lipids were extracted from cells with chloroform:methanol:water (1:1:0.3), at 37°C for 1 hr with magnetic stirring (Ericsson, J., Runquist, M., Thelin, A., Andersson, M., Chojnacki, T., and Dallner, G. (1993) J Biol Chem 268(2), 832-838). The extracts thus obtained were adjusted to achieve a final chloroform:methanol:water ratio of 3:2:1 and complete phase separation then accomplished by centrifugation. The lower chloroform phase was removed and evaporated to dryness under a flow of nitrogen and the residue subsequently re-dissolved in chloroform. These solutions were placed onto a silica column (50 mg/1.5 ml; Extract-Clean, Alltech, Deerfield, IL) and thereafter eluted with 6 ml chloroform. After evaporation of the solvents, the neutral lipids were dissolved in chloroform:methanol (2:1).
(§3) For analysis of cholesterol, cholesterol metabolites, squalene, and CoQ, the samples were subjected to reversed-phase HPLC using a Supelcosil LC-18 column (3 µm, 4.0 x 75 mm) equipped with an LC-18 Supelguard (Supelco) column (Ericsson, J., Thelin, A., Chojnacki, T., and Dallner, G. (1992) J Biol Chem 267(27), 19730-19735). For separation, a stepwise gradient involving methanol:water (9:1) in pump system A and methanol:2-propanol:hexane (2:1:1) in pump system B was employed at a flow rate of 1.1 ml/min. The gradient began at 15% solvent B, with increases to 47% after 8 min, 67% after 16 min and 100% after 24 min. The lipids in the eluent were monitored at 210 nm and 275 nm with a UV detector and labeling of radioactive products was measured with on-line detector of radioactivity. Ergosterol and CoQ6 were used as internal standards.

In test [2] the test system is HepG2 cells. Nature of the test: Biosynthesis of cholesterol from [3H]lanosterol in the presence of inhibitors. The class given is cell-based, human. The note with it: for Cholesterol: 2 µM tetraepoxysolanesol or ketoconazole or 0.2 µM RO 48-8071, 24 hrs, then [3H]lanosterol 8 hrs, means ± SE of 3 experiments; for cholesterol synthesis with [3H]lanosterol as precursor: result in words. As for the experimental part: as §1, §2, §3

Test [3] has as its system HepG2 cells. Nature of the test: Biosynthesis of cholesterol and CoQ by HepG2 cells: incorporation of [3H]mevalonate, lipid extraction, HPLC with on-line detection of radioactivity. The class given is cell-based. The settings on record: Homo sapiens, [3H]mevalonate incorporation into cholesterol, read-out: inhibition (reduction) of cholesterol synthesis.
[4] abbreviates: 2 µM, 24 hours, then [3H]mevalonate for 8 hours, means ± SD (n = 4).
Setting [5] is: 2 µM, 24 hours, then [3H]mevalonate for 8 hours, labeling of cholesterol, means ± SD (n = 4).
Setting [6] is: 2 µM tetraepoxysolanesol or ketoconazole or 0.2 µM RO 48-8071, 24 hrs, then [3H]mevalonate 8 hrs, means ± SE.
[7] abbreviates: 2 µM tetraepoxysolanesol or ketoconazole or 0.2 µM RO 48-8071, 24 hrs, then [3H]mevalonate 8 hrs, means ± SE, n.d. = not detectable.

Regarding `CC(=O)OC/C=C(\C)CC/C=C(\C)CC/C=C(\C)CCC=C(C)C` [Geranylgeranyl-acetate], the “Coenzyme Q10” value in test [1] (setting [4]) was 109 ± 12 % of control. In test [1] (setting [5]), the Cholesterol was 102 ± 4 % of control.
For `CC(C)=CCC/C(C)=C/CC/C(C)=C/CO` [Farnesol] the same measures were 100 ± 4 % of control and 101 ± 3 % of control.
Consider Vitamin K2, for which the “Coenzyme Q10” value in test [1] (setting [4]) was 127 ± 18 % of control. Besides, the Cholesterol in test [1] (setting [5]) is listed as 67 ± 7 % of control. Moreover, the “inhibition (reduction) of cholesterol synthesis” value in test [1] (2 µM, [3H]mevalonate incorporation into cholesterol) was 33%. In addition, the “elevation (stimulation) of CoQ synthesis” value in test [1] (2 µM, [3H]mevalonate labeling of CoQ) was found to be 27%.
As for `CC(C)=CCC/C(C)=C/CC/C(C)=C/CC/C(C)=C/CO` [Geranylgeraniol], the “Coenzyme Q10” value in test [1] (setting [4]) is 107 ± 11 % of control. The Cholesterol in test [1] (setting [5]) is recorded as 102 ± 5 % of control.
For Solanesyl-acetate the same measures were 145 ± 18 % of control and 4 ± 2 % of control.
Consider `CC(=O)N1CCN(c2ccc(OCC3COC(Cn4ccnc4)(c4ccc(Cl)cc4Cl)O3)cc2)CC1` (centres unmarked) [Ketoconazole, reference compound], for which, in test [1] (setting [6]), the CQ10 was 2.4 ± 0.3 cpm/pg protein. In test [1] (setting [7]), the Cholesterol amounted to 25 ± 4 cpm/pg protein and the Lanosterol is 58 ± 16 cpm/pg protein. Moreover, in test [2], the Cholesterol worked out at 1.3 ± 0.3 cpm/pg protein and the “cholesterol synthesis with [3H]lanosterol as precursor” value was “inhibited”.
Take `C=CCN(C)CCCCCCOc1ccc(C(=O)c2ccc(Br)cc2)c(F)c1` [RO 48-8071, reference compound]: in test [1] (setting [6]), the CQ10 turned out to be 2.1 ± 0.2 cpm/pg protein. In addition, in test [1] (setting [7]), the “2,3-Oxido squalene” value was 91 ± 10 cpm/pg protein and the “2,3:22,23-Dioxidosqualene” value came out at 108 ± 22 cpm/pg protein. In test [2], the Cholesterol amounted to 10.1 ± 1.2 cpm/pg protein and the “cholesterol synthesis with [3H]lanosterol as precursor” value was “neither tetraepoxysolanesol or RO 48-8071 inhibited”.
Turning to Solanesol, the “Coenzyme Q10” value in test [1] (setting [4]) was 138 ± 14 % of control. In test [1] (setting [5]), the Cholesterol was 3 ± 1 % of control.
As to Farnesyl-acetate, the “Coenzyme Q10” value in test [1] (setting [4]) is listed as 105 ± 8 % of control. The Cholesterol in test [1] (setting [5]) is listed as 103 ± 4 % of control.
`CC(C)=CCC/C(C)=C/CC/C(C)=C/CC/C=C(\C)CC/C=C(\C)CCC=C(C)C` [Squalene]: in test [1] (setting [4]), the “Coenzyme Q10” value is 111 ± 8 % of control. Besides, in test [1] (setting [5]), the Cholesterol is reported as 30 ± 5 % of control. Further, the inhibition at 2 µM in test [3] was determined as 70%.
